Test results taken from patent EP0098138A2, “Microbial cells and the use thereof to produce oxidation products” (EXXON RESEARCH AND ENGINEERING COMPANY, priority 1982, dated 1984).
Like-named read-outs stand apart in the source and are kept apart here.

What was measured:
[1] = test system: secondary alcohol dehydrogenase; experiment: Oxidation of secondary alcohols by soluble extracts (NAD+ reduction at 340 nm); type: biochemical, Arthrobacter sp. (CRL 60 P1) NRRL B-11,315; conditions: substrate of soluble extracts, pH 8.0, 100% = 22 nmoles of NAD+ reduced per minute per mg of protein
Procedure: (§1) Cell suspensions of the microorganism strains identified in Table XII grown on the indicated growth substrate were disrupted with a wave energy ultrasonic oscillator Model W201 (Wave Energy System, Inc., Newton, Pa) and centrifuged at 30,000 x g for 30 min. The supernatant solution (cell extracts) was used for the oxidation of secondary alcohols. Secondary alcohol dehydrogenase activity was measured spectrophotometrically at 340 nm with oxidized nicotinamide adenine dinucleotide (NAD^+) as an electron acceptor.
(§2) The initial reaction mixture, in a total volume of 3.0 ml, consisted of 50mM phosphate buffer of pH 8.0, 5 µ moles of NAD^+, and cell extract.

[2] = test system: alkane monooxygenase; experiment: Epoxidation of alkenes and styrene by soluble extracts; type: biochemical, Brevibacterium sp. (CRL 56 P6Y) NRRL B-11,319
Procedure: The microorganism Brevibacterium sp. […] The fermentor was inoculated with 2 liters of a culture grown in flasks.
The cells thus grown were washed twice with 25 mM potassium phosphate buffer pH 7.0 and suspended in the same buffer solution containing 5mM MgCl2 and deoxyribonuclease (0.05 mg/ml). […] Disintegrated cell suspensions were centrifuged at 15,000 x g for 15 min. to remove unbroken cells. The supernatant solution was then centrifuged at 40,000 x g for 60 minutes and the supernatant solution therefrom was again centrifuged at 80,000 x g for 60 minutes, yielding the soluble fraction.
Several 3-ml vials at 4°C were charged with 0.2 ml of a reaction mixture consisting of 10 µmoles potassium phosphate buffer pH 7.0, 4 µ cmoles NADH2, and the soluble enzyme fraction obtained above. The gaseous phase of the vials was evacuated by vacuum and replaced with a gas mixture of gaseous oxidation substrate and oxygen (1:1 v/v); in the case of a liquid oxidation substrate, 2 µl of substrate was added. The vials were incubated at 35 °C on a reciprocating water bath shaker at 50 oscillations per minute.
The rate of epoxidation of alkenes and styrene was measured by injecting 1-2 µ1 samples of the reaction mixture into a gas chromatograph immediately after addition of substrate (zero time) and after 5 and 10 min. of incubation. Specific activities were expressed as […] of product formed per 10 min. per mg of protein. With each substrate, control experiments were conducted in the absence of NADH2, in the absence of oxygen, and using boiled extracts.

[3] = test system: Propylene-Oxidizing Activity of Arthrobacter sp. (CRL 60 P1) NRRL B-11,315; experiment: Effect of inhibitors on propylene-oxidizing activity (propylene oxide formation) of propane-grown cell suspensions; type: cell-based; conditions: for inhibition at 1000 µM: Arthrobacter, NRRLB11, 0.25 h
Procedure: (§3) The pH of the nutrient medium was adjusted to 7.0 by the addition of acid or base and 50 ml samples of the nutrient medium were charged into a plurality of 300 ml shake flasks. The shake flasks were inoculated with an innoculating loop of cells from an agar plate containing homogeneous colonies of the microorganisms on the plate (the purity of the isolates was confirmed by microscopic examination). […] In the case of growth on liquid substrates (at 0.3%, v/v), the gaseous phase of the flasks was air. The inoculated flasks were sealed air tight and were incubated on a rotary shaker at 250 rpm and at 30°C for two days until turbidity in the medium had developed.
(§4) The cells were harvested by centrifugation at 12,000 x g. at 4 °C for 15 minutes. The cell pellet was washed twice with a 50 mM phosphate buffer at a pH of 7.0. The washed cells were then suspended in a 50mM phosphate buffer at pH 7.0.
(§5) The gaseous phase of the vials was removed with vacuum and then was replaced with a gas mixture of the oxidative substrate (e.g. ethane) and oxygen at a 1:1 v/v ratio. If a liquid substrate was employed, 5-10 µl of substrate was placed in the vials. […] Samples (3 µl) were withdrawn periodically with a microsyringe and the products were analyzed by gas chromatography (ionization flame detector column) at a column temperature of 100°C to 180 °C and at a carrier gas flow rate of 30 or 35 ml/ min of helium. The various products were identified by retention time comparisons and co-chromatography with authentic standards. […] Protein in the cell suspensions was determined by the method described by […].
(§6) All inhibitors were added at 1mM concentration and the cell suspensions were incubated for 15 min. at 4 °C.

[4] = test system: secondary alcohol dehydrogenase; experiment: Effect of inhibitors on oxidation of 2-butanol by cell extracts (NAD+ reduction at 340 nm); type: biochemical, Arthrobacter sp. (CRL 60 P1) NRRL B-11,315
Procedure: as §1, §2
All inhibitors were tested at lmM concentration and incubated with the soluble extracts in the reaction mixture for 15 min at 0°C. Otherwise the procedure described above was followed.

[5] = test system: Propane-Oxidizing Activity of Arthrobacter sp. (CRL 60 P1) NRRL B-11,315; experiment: Effect of inhibitors on propane-oxidizing activity (acetone production) of propane-grown cell suspensions; type: cell-based; conditions: for inhibition at 1000 µM: Arthrobacter, NRRLB11, 0.25 h
Procedure: as §3, §4, §5, §6

[6] = test system: Cell-Free Particulate Fraction of Arthrobacter sp. (CRL 60 P1) NRRL B-11,315; experiment: Oxidation of alkenes and alkanes by cell-free particulate P(40) fraction; type: biochemical
Procedure: (§9) Cells were harvested during exponential growth by centrifugation at 12,000 x g for 15 min. at 4°C. Cells were washed twice with a 25 mM potassium phosphate buffer of pH 7.0 containing 5mM MgCl2 and were then suspended in the same buffer. The resulting cell suspensions at 4°C were disintegrated by a single passage through a French pressure cell (45 mPa) and centrifuged at 5,000 x g for 15 min to remove unbroken bacteria. […] The particulate fraction [P(40)] was suspended in the same buffer as described above and homogenized at 4°C.
(§10) A 1.0 ml sample containing the particulate or soluble fraction, 10 µ moles NADH and 150 mM potassium phosphate buffer at pH 7.0 containing 3 µ moles MgCl2 was put into separate 10 ml vials at 4°C which were sealed with a rubber cap. The gaseous phase of the vials was removed by vacuum and replaced with a gas mixture of the indicated alkane or alkene as substrate and oxygen at a 1:1 v/v ratio. The vials were then incubated at 30°C on a rotary shaker at 200 rpm for 10 minutes.
Reactions were linear during the first 15 minutes of incubation as measured by detection of product by gas chromatography.

[7] = test system: Cell-Free Particulate P(40) Fraction of Arthrobacter sp. (CRL 60 P1) NRRL B-11,315
Procedure: as §9, §10

[8] = test system: Arthrobacter sp. (CRL 60 Pl) NRRL B-11,315; experiment: Effect of propane on oxidation of propylene to propylene oxide by cell suspensions; type: cell-based; conditions: propane added to cell suspensions epoxidising propylene
Excerpt: (§7) The following summarizes tests conducted on the optimal conditions for the production of propylene oxide from propylene using cell suspensions of propane-grown Arthrobacter sp. (CRL 60 Pl) NRRL B-11,315 as the representative microorganism strain. It will be understood that these are optimal conditions found for one particular strain and one particular substrate, and the invention is not meant to be bound by them. Conversions of propylene can still be obtained using Arthrobacter sp. (CRL 60 Pl) NRRL B-11,315 by deviating from the optimum indicated below, but with lower yields and conversions.
The effect of propane on the oxidation of propylene to propylene oxide was studied to determine if a single enzyme system was responsible for the oxidation of both propane and propylene.

[9] = test system: Arthrobacter sp. (CRL 60 Pl) NRRL B-11,335
Procedure: as §5
Arthrobacter sp. […] Ethanol was converted to acetaldehyde (acetyl Co ~A in vivo) by primary alcohol dehydrogenase, yielding 1 mole of NADH, with subsequent oxidation of the intermediate acetyl Co ~A to carbon dioxide, yielding 3 additional moles of NADH.

[10] = type: physicochemical
Procedure: (§8) To determine if the slower reaction rate after 40-60 min of incubation was due to enzymatic or non-enzymatic oxidation of propylene oxide or due to product inhibition, 5 µ moles of propylene oxide was added to viable and to heat-killed cell suspensions in the presence and absence of propylene, and incubated at 30°C.
[…]. The rate of epoxidation of propylene was found not to vary markedly in the pH range from 5 to 9, with the optimum pH about 7. A 5 A mole sample of propylene oxide was added to heat-killed cell suspensions at pH 5, 7 and 9 to test for non-enzymatic degradation of propylene oxide at these pH values.

[11] = test system: Arthrobacter sp. (CRL 60 Pl) NRRL B-11,315; experiment: Further oxidation of added propylene oxide by viable cell suspensions; type: cell-based; conditions: 5 µ moles added to viable cell suspension, 30°C
Excerpt: as §7, §8

[12] = test system: Cell-Free Particulate P(40) Fraction of Arthrobacter sp. (CRL 60 P1) NRRL B-11,315; experiment: Effect of inhibitors on oxidation of propane and butane by cell-free particulate P(40) fraction
Procedure: as §9, §10

[13] = substrate epoxidised by soluble fraction, NADH2 and oxygen, pH 7.0, 35°C
[14] = inhibitor 1mM, cell suspensions incubated 15 min at 4°C, propylene oxide formation by gas chromatography, uninhibited rate 0.6 μmoles/15 min/mg of protein
[15] = inhibitor 1mM, incubated with soluble extracts 15 min at 0°C, substrate 2-butanol, uninhibited activity 25 nmoles of NAD+ reduced per min per mg of protein
[16] = inhibitor 1mM, cell suspensions incubated 15 min at 4°C, acetone production by gas chromatography, uninhibited rate 1.5 μ moles/hr/mg of protein
[17] = alkene substrate, epoxide product, P(40) fraction, NADH and oxygen, pH 7.0, 30°C

2-Butanol
Rate of Oxidation (%) [1]: 100%

C=CC=C [1,3-Butadiene]
Rate of Product Formation [2, 13]: 0.044 μ mole/10 min./mg protein

c1cnc2c(c1)ccc1cccnc12 [1,10-Phenanthroline]
inhibition at 1000 µM [3, 14]: 90% | Inhibition (%) [4, 15]: 80% | inhibition at 1000 µM [5, 16]: 80%

C=CCC [1-Butene]
Rate of Product Formation ([2]; pH 7): 0.030 μ mole/10 min./mg protein | Rate of Product Formation ([6]; pH 7): 0.216 μ moles/hr/mg protein

C=CCCCCC [1-Heptene]
Rate of Product Formation ([2]; pH 7): 0.008 μ mole/10 min./mg protein

C=CCCC [1-Pentene]
Rate of Product Formation [2, 13]: 0.025 μ mole/10 min./mg protein | Rate of Product Formation [6, 17]: 0.195 μ moles/hr/mg protein

CCCCCC(C)O (stereo not shown) [2-Heptanol]
Rate of Oxidation (%) [1]: 4%

CCCCC(C)O (stereo not shown) [2-Hexanol]
Rate of Oxidation (%) [1]: 10%

CCCC(C)O (stereo not shown) [2-Pentanol]
Rate of Oxidation (%) [1]: 12%

C=C [Ethylene]
Rate of Product Formation ([2]; pH 7): 0.040 μ mole/10 min./mg protein | Rate of Product Formation ([6]; pH 7): 0.153 μ moles/hr/mg protein

NO [Hydroxylamine]
Inhibition (%) Propylene-Oxidizing Activity [3, 14]: 83% | Inhibition (%) Propane-Oxidizing Activity [5, 16]: 70%

c1c[nH]cn1 [Imidazole]
inhibition at 1000 µM [5, 16]: 80% | inhibition [7]: 80%

C=C(C)C [Isobutene]
Rate of Product Formation [2, 13]: 0.046 μ mole/10 min./mg protein

NNC(=O)c1ccncc1 [Isoniazide]
inhibition at 1000 µM [3, 14]: 35% | inhibition at 1000 µM [5, 16]: 30%

CC(C)O [Isopropanol]
Rate of Oxidation (%) [1]: 65%

CCN1C(=O)C=CC1=O [N-Ethylmaleimide]
inhibition at 1000 µM [3, 14]: 81% | Inhibition (%) [4, 15]: 30% | inhibition at 1000 µM [5, 16]: 70%

CCC [Propane]
Rate of Product Formation ([6]; alkane substrate, primary alcohol product (n-propanol, n-butanol), P(40) fraction, NADH and oxygen, pH 7.0, 30°C): 0.600 μ moles/hr/mg protein | Rate of Product Formation ([6]; alkane substrate, secondary alcohol product (2-propanol, 2-butanol), P(40) fraction, NADH and oxygen, pH 7.0, 30°C): 0.300 μ moles/hr/mg protein | effect of propane on the oxidation of propylene to propylene oxide [8]: reducing the amount of propylene oxide formed

C=CC [Propylene]
Rate of Product Formation [2, 13]: 0.052 μ mole/10 min./mg protein | Rate of Product Formation [6, 17]: 0.360 μ moles/hr/mg protein

C=Cc1ccccc1 [Styrene]
Rate of Product Formation [2, 13]: 0.005 μ mole/10 min./mg protein

CC(=N)S [Thioacetamide]
inhibition at 1000 µM [3, 14]: 68% | inhibition at 1000 µM [5, 16]: 60%

NNC(N)=S [Thiosemicarbazide]
inhibition at 1000 µM [3, 14]: 12% | inhibition at 1000 µM [5, 16]: 10%

NC(N)=S [Thiourea]
inhibition at 1000 µM [3, 14]: 12% | inhibition at 1000 µM [5, 16]: 10%

C/C=C\C [cis-But-2-ene]
Rate of Product Formation ([2]; pH 7): 0.018 μ mole/10 min./mg protein

CCO [ethanol]
Epoxidation Rate (rate of propylene oxide formation) ([9]; 5 μmole ethanol, 1 hr., control 2.5): 2.9 μ mole/0.5 ml. | Epoxidation Rate (rate of propylene oxide formation) ([9]; 5 μmole ethanol, 2 hr., control 3.8): 5.6 μ mole/0.5 ml. | Epoxidation Rate (rate of propylene oxide formation) ([9]; 5 μmole ethanol, 3 hr., control 3.9): 6.5 μ mole/0.5 ml. | Epoxidation Rate (rate of propylene oxide formation) ([9]; 25 μmole ethanol, 1 hr., control 2.5): 2.4 μ mole/0.5 ml. | Epoxidation Rate (rate of propylene oxide formation) ([9]; 25 μmole ethanol, 2 hr., control 3.8): 5.2 μ mole/0.5 ml. | Epoxidation Rate (rate of propylene oxide formation) ([9]; 25 μmole ethanol, 3 hr., control 3.9): 6.5 μ mole/0.5 ml.

O=C(O)c1cc[c]([Hg+])cc1.[OH-] [p-Hydroxymercuribenzoate]
Inhibition (%) Propylene-Oxidizing Activity [3, 14]: 35% | Inhibition (%) [4]: 95% | Inhibition (%) Propane-Oxidizing Activity [5, 16]: 35%

CC1CO1 (stereo not shown) [propylene oxide]
amount of propylene oxide ([10]; 5 µ moles added to heat-killed cell suspensions, 30°C): remained constant | non-enzymatic degradation of propylene oxide ([10]; heat-killed cell suspensions at pH 5, 7 and 9, one hour of incubation): did not decrease | disappearance in propylene oxide [11]: Some disappearance

C/C=C/C [trans-But-2-ene]
Rate of Product Formation ([2]; pH 7): 0.022 μ mole/10 min./mg protein

α,α-Bipyridyl
Inhibition (%) Propylene-Oxidizing Activity [3]: 32% | Inhibition (%) Propane-Oxidizing Activity [5]: 30% | Inhibition (%) [12]: 32%
